The structures appear in SMILES notation. pKi: −log10 of the molar value. Read-outs that look alike come from different tables or passages of the source.

The target in one experiment is rat orexin 1 receptor (Rattus norvegicus, UniProt P56718). Description: Rat orexin 1 receptor radioligand binding (competitive, [3H]-SB674042, HEK293 cell preparations).
Another experiment deals with human orexin 2 receptor (Homo sapiens (Human), UniProt O43614). Description: Human orexin 2 receptor radioligand binding (competitive, [3H]-EMPA, HEK293 cell preparations).
The mark [1] stands for this setting: human orexin 2 receptor, [3H]-EMPA competition binding, read-out: hOX2 Ki (nm).
Where [2] appears, read: rat orexin 1 receptor, [3H]-SB674042 competition binding, read-out: rOX1 Ki (nm).

Chain of human orexin 2 receptor (O43614 whole entry): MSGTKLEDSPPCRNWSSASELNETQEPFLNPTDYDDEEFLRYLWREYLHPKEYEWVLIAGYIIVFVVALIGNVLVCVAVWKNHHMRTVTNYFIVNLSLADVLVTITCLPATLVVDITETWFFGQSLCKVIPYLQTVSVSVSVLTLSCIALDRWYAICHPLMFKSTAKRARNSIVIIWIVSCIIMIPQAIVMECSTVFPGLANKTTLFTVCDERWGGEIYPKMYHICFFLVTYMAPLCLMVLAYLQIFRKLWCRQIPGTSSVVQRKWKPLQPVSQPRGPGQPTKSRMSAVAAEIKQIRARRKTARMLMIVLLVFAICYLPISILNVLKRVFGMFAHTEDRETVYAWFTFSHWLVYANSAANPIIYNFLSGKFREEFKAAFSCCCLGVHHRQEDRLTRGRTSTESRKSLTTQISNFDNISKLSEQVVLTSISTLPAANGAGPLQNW

Consider `CCOc1nccc(C)c1C(=O)N1C2CCC1C(COc1ccccn1)C2` (racemic) [Example 155, (±)-(2-ethoxy-4-methylpyridin-3-yl)(2-((pyridin-2-yloxy)methyl)-7-azabicyclo[2.2.1]heptan-7-yl)methanone], for which the negative logarithm of the Ki (pKi) was 5.80 at rat orexin 1 receptor (rOX1 Ki (nm)) and 5.44 at human orexin 2 receptor (setting [1]).
Take `Cc1nc2sccn2c1C(=O)N1C2CCC1C(COc1ccccn1)C2` (racemic) [Example 156, (±)-(6-methylimidazo[2,1-b]thiazol-5-yl)(2-((pyridin-2-yloxy)methyl)-7-azabicyclo[2.2.1]heptan-7-yl)methanone]: the pKi at rat orexin 1 receptor (setting [2]) and at human orexin 2 receptor (setting [1]) was less than 5.00 in each case.
With `CCOc1nc(C)ccc1C(=O)N1C2CCC1C(COc1ccccn1)C2` (racemic) [Example 158, (±)-(2-ethoxy-6-methylpyridin-3-yl)(2-((pyridin-2-yloxy)methyl)-7-azabicyclo[2.2.1]heptan-7-yl)methanone], the pKi was 5.53 on rat orexin 1 receptor (setting [2]) and 5.75 at human orexin 2 receptor (setting [1]).
For `O=C(c1c(O)ccc2cccnc12)N1C2CCC1C(COc1ccccn1)C2` (racemic) [Example 159, (±)-(7-hydroxyquinolin-8-yl)(2-((pyridin-2-yloxy)methyl)-7-azabicyclo[2.2.1]heptan-7-yl)methanone], the negative logarithm of the Ki (pKi) is 6.58 at rat orexin 1 receptor (setting [2]) and 6.10 on human orexin 2 receptor (setting [1]).
For `CCOc1ncc(-c2ccccc2)cc1C(=O)N1C2CCC1C(COc1ccccn1)C2` (racemic) [Example 160, (±)-(2-ethoxy-5-phenylpyridin-3-yl)(2-((pyridin-2-yloxy)methyl)-7-azabicyclo[2.2.1]heptan-7-yl)methanone], in that order: 5.06 and less than 5.00.
In the case of `CCOc1nccc(Br)c1C(=O)N1C2CCC1C(COc1ccccn1)C2` (racemic) [Example 161, (±)-(4-bromo-2-ethoxypyridin-3-yl)(2-((pyridin-2-yloxy)methyl)-7-azabicyclo[2.2.1]heptan-7-yl)methanone], the values for the pKi on rat orexin 1 receptor (setting [2]) and on human orexin 2 receptor (hOX2 Ki (nm)) were 6.32 and 5.84, respectively.
Turning to `CCOc1ccnc(Cl)c1C(=O)N1C2CCC1C(COc1ccccn1)C2` (racemic) [Example 162, (±)-(2-chloro-4-ethoxypyridin-3-yl)(2-((pyridin-2-yloxy)methyl)-7-azabicyclo[2.2.1]heptan-7-yl)methanone], the negative-log Ki (pKi) is 5.07 on rat orexin 1 receptor (setting [2]) and less than 5.00 on human orexin 2 receptor (setting [1]).
Regarding `O=C(c1cc(F)ccc1-n1nccn1)N1C2CCC1C(CNc1cnc3ccccc3n1)C2` (racemic) [Example 174, (±)-(5-fluoro-2-(2H-1,2,3-triazol-2-yl)phenyl)(2-((quinoxalin-2-ylamino)methyl)-7-azabicyclo[2.2.1]heptan-7-yl)methanone], the figures for the negative logarithm of the Ki (pKi) on rat orexin 1 receptor (setting [2]) and at human orexin 2 receptor (setting [1]) were 6.43 and 6.00, respectively.
Consider `Cc1ccc(-c2ncccn2)c(C(=O)N2C3CCC2C(COc2ncc(F)cn2)C3)n1` (racemic) [Example 175, (±)-(2-(((5-fluoropyrimidin-2-yl)oxy)methyl)-7-azabicyclo[2.2.1]heptan-7-yl)(6-methyl-3-(pyrimidin-2-yl)pyridin-2-yl)methanone], for which the values for the negative-log Ki (pKi) on rat orexin 1 receptor (rOX1 Ki (nm)) and at human orexin 2 receptor (setting [1]) were 5.60 and 5.40, respectively.
Turning to `Cc1coc(-c2ccc(C)nc2C(=O)N2C3CCC2C(COc2ccc(F)cn2)C3)n1` (racemic) [Example 177, (±)-(2-(((5-fluoropyridin-2-yl)oxy)methyl)-7-azabicyclo[2.2.1]heptan-7-yl)(6-methyl-3-(4-methyloxazol-2-yl)pyridin-2-yl)methanone], the negative-log Ki (pKi) at rat orexin 1 receptor (setting [2]) is 6.27; on human orexin 2 receptor (setting [1]), 5.40.
For `Cc1cnc(C(=O)N2C3CCC2C(Nc2cnc(C(F)(F)F)cn2)C3)c(-n2ccnn2)c1` (racemic) [Example 185, (±)-(5-methyl-3-(1H-1,2,3-triazol-1-yl)pyridin-2-yl)(2-(5-(trifluoromethyl)pyrazin-2-yl)amino)-7-azabicyclo[2.2.1]heptan-7-yl)methanone], in that order: 5.82 and 5.57.
In the case of `Cc1cnc(C(=O)N2C3CCC2C(Nc2ccc(C(F)(F)F)cn2)C3)c(-n2nccn2)c1` (racemic) [Example 188, (±)-(5-methyl-3-(2H-1,2,3-triazol-2-yl)pyridin-2-yl)(2-(5-(trifluoromethyl)pyridin-2-yl)amino)-7-azabicyclo[2.2.1]heptan-7-yl)methanone], the figures for the pKi at rat orexin 1 receptor (rOX1 Ki (nm)) and at human orexin 2 receptor (setting [1]) were 6.53 and 5.82, respectively.
Turning to `Cc1ccc(C(=O)N2C3CCC2C(Nc2ccc(C(F)(F)F)cn2)C3)c(-n2nccn2)n1` (racemic) [Example 189, (±)-(6-methyl-2-(2H-1,2,3-triazol-2-yl)pyridin-3-yl)(2-(5-(trifluoromethyl)pyridin-2-yl)amino)-7-azabicyclo[2.2.1]heptan-7-yl)methanone], the pKi on rat orexin 1 receptor (setting [2]) was 6.12; at human orexin 2 receptor (hOX2 Ki (nm)), 5.82.
For the compound `Cc1ccc(C(=O)N2C3CCC2C(Nc2ccc(C(F)(F)F)cn2)C3)c(-n2ccnn2)n1` (racemic) [Example 190, (±)-(6-methyl-2-(1H-1,2,3-triazol-1-yl)pyridin-3-yl)(2-(5-(trifluoromethyl)pyridin-2-yl)amino)-7-azabicyclo[2.2.1]heptan-7-yl)methanone], the negative logarithm of the Ki (pKi) on rat orexin 1 receptor (rOX1 Ki (nm)) is 6.23; at human orexin 2 receptor (setting [1]) it was 5.92.
On to `COc1ccc(C(=O)N2C3CCC2C(Nc2ccc(C(F)(F)F)cn2)C3)c(-n2nccn2)c1` (racemic) [Example 191, (±)-(4-methoxy-2-(2H-1,2,3-triazol-2-yl)phenyl)(2-(5-(trifluoromethyl)pyridin-2-yl)amino)-7-azabicyclo[2.2.1]heptan-7-yl)methanone], for which the negative logarithm of the Ki (pKi) on rat orexin 1 receptor (rOX1 Ki (nm)) is 6.59; on human orexin 2 receptor (setting [1]), 5.06.
On to `COc1c(F)cccc1C(=O)N1C2CCC1C(Nc1ccc(C(F)(F)F)cn1)C2` (racemic) [Example 193, (±)-((3-fluoro-2-methoxyphenyl)(2-(5-(trifluoromethyl)pyridin-2-yl)amino)-7-azabicyclo[2.2.1]heptan-7-yl)methanone], for which the negative-log Ki (pKi) on rat orexin 1 receptor (setting [2]) is 5.54; on human orexin 2 receptor (setting [1]), less than 5.00.
With `CCOc1ccc(C)nc1C(=O)N1C2CCC1C(Nc1ccc(C(F)(F)F)cn1)C2` (racemic) [Example 194, (±)-(3-ethoxy-6-methylpyridin-2-yl)(2-(5-(trifluoromethyl)pyridin-2-yl)amino)-7-azabicyclo[2.2.1]heptan-7-yl)methanone], the results for the pKi at rat orexin 1 receptor (rOX1 Ki (nm)) and on human orexin 2 receptor (setting [1]) were 6.35 and 6.10, respectively.
In the case of `Cc1cc(C)nc(NC2CC3CCC2N3C(=O)c2nc(C)ccc2-c2ncccn2)n1` (racemic) [Example 200, (±)-(2-(((4,6-dimethylpyrimidin-2-yl)amino)-7-azabicyclo[2.2.1]heptan-7-yl)(6-methyl-3-(pyrimidin-2-yl)pyridin-2-yl)methanone], the values for the negative logarithm of the Ki (pKi) on rat orexin 1 receptor (setting [2]) and at human orexin 2 receptor (setting [1]) were 5.96 and 6.26, respectively.
For `Cc1cc(C)nc(NC2CC3CCC2N3C(=O)c2nc(C)ccc2-n2nccn2)n1` (racemic) [Example 201, (±)-(2-((4,6-dimethylpyrimidin-2-yl)amino)-7-azabicyclo[2.2.1]heptan-7-yl)(6-methyl-3-(2H-1,2,3-triazol-2-yl)pyridin-2-yl)methanone], in that order: 5.43 and 5.96.
For the compound `Cc1cc(C)nc(NC2CC3CCC2N3C(=O)c2ccccc2-n2nccn2)n1` (racemic) [Example 202, (±)-(2-(2H-1,2,3-triazol-2-yl)phenyl)(2-(((4,6-dimethylpyrimidin-2-yl)amino)-7-azabicyclo[2.2.1]heptan-7-yl)methanone], the pKi at rat orexin 1 receptor (setting [2]) was 6.12; on human orexin 2 receptor (hOX2 Ki (nm)), 6.35.
In the case of `CCOc1ccc(C)nc1C(=O)N1C2CCC1C(Nc1nc(C)cc(C)n1)C2` (racemic) [Example 203, (±)-(2-((4,6-dimethylpyrimidin-2-yl)amino)-7-azabicyclo[2.2.1]heptan-7-yl)(3-ethoxy-6-methylpyridin-2-yl)methanone], the pKi on rat orexin 1 receptor (setting [2]) was less than 5.00; on human orexin 2 receptor (setting [1]), 6.31.
For `O=C(c1ccccc1-n1nccn1)N1C2CCC1C(Nc1cccc(C(F)(F)F)n1)C2` (racemic) [Example 209, (±)-(2-(2H-1,2,3-triazol-2-yl)phenyl)(2-(6-(trifluoromethyl)pyridin-2-yl)amino)-7-azabicyclo[2.2.1]heptan-7-yl)methanone], in that order: 5.96 and 6.13.
In the case of `O=C(c1ccccc1-n1nccn1)N1C2CCC1C(Nc1ccc(C(F)(F)F)nn1)C2` (racemic) [Example 212, (±)-(2-(2H-1,2,3-triazol-2-yl)phenyl)(2-(6-(trifluoromethyl)pyridazin-3-yl)amino)-7-azabicyclo[2.2.1]heptan-7-yl)methanone], the pKi on rat orexin 1 receptor (setting [2]) was 6.13; at human orexin 2 receptor (hOX2 Ki (nm)), 5.31.
For `COc1ccc(NC2CC3CCC2N3C(=O)c2ccccc2-n2nccn2)nc1` (racemic) [Example 213, (±)-(2-(2H-1,2,3-triazol-2-yl)phenyl)(2-((5-methoxypyridin-2-yl)amino)-7-azabicyclo[2.2.1]heptan-7-yl)methanone], the pKi is 5.55 on rat orexin 1 receptor (setting [2]) and 5.12 on human orexin 2 receptor (setting [1]).
For the compound `Cc1ccc(NC2CC3CCC2N3C(=O)c2ccccc2-n2nccn2)nc1` (racemic) [Example 214, (±)-(2-(2H-1,2,3-triazol-2-yl)phenyl)(2-(((5-methylpyridin-2-yl)amino)-7-azabicyclo[2.2.1]heptan-7-yl)methanone], the results for the negative-log Ki (pKi) at rat orexin 1 receptor (rOX1 Ki (nm)) and at human orexin 2 receptor (hOX2 Ki (nm)) were 6.30 and 5.51, respectively.
Turning to `O=C(c1ccccc1-n1nccn1)N1C2CCC1C(Nc1ccccn1)C2` (racemic) [Example 215, (±)-(2-(2H-1,2,3-triazol-2-yl)phenyl)(2-(pyridin-2-ylamino)-7-azabicyclo[2.2.1]heptan-7-yl)methanone], the pKi was 5.77 on rat orexin 1 receptor (setting [2]) and 5.05 on human orexin 2 receptor (setting [1]).
Take `COc1c(F)cccc1C(=O)N1C2CCC1C(Nc1ccc(Br)cn1)C2` (racemic) [Example 218, (±)-(2-((5-bromopyridin-2-yl)amino)-7-azabicyclo[2.2.1]heptan-7-yl)(3-fluoro-2-methoxyphenyl)methanone]: the results for the negative logarithm of the Ki (pKi) at rat orexin 1 receptor (rOX1 Ki (nm)) and on human orexin 2 receptor (setting [1]) were 5.57 and 5.17, respectively.

The values above are taken from patent US9062078B2, “Substituted 7-azabicyles and their use as orexin receptor modulators” (priority 2013, dated 2015).
